11 compounds from patent US20050228180A1, “Alpha, omega-dicarboximide derivatives as useful uro-selective a1a adrenoceptor blockers” (priority 2002, published 2005) can be followed below.

The structures appear in SMILES notation. Counter-ions that a name gives are not always drawn.

One test deals with T1, α1A adrenoceptor (Rattus norvegicus, UniProt P43140).
T1 construct: from tissue; host or cells: rat submaxillary gland membranes
T1 sequence (P43140 1-466): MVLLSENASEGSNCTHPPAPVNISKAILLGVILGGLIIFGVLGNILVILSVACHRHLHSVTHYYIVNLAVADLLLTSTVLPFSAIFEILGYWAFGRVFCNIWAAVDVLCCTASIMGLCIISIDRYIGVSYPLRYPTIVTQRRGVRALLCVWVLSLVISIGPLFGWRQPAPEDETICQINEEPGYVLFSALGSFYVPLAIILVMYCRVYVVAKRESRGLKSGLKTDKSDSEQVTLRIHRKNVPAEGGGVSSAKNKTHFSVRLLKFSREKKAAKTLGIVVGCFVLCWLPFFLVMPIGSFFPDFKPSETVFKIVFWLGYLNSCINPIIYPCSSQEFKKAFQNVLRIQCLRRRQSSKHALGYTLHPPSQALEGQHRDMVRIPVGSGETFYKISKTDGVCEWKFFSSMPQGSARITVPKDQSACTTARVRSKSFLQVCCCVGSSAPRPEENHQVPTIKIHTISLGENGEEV
Nature of the test: Radioligand binding, [3H] prazosin displacement, rat submaxillary membranes. Conditions: for Ki: [3H] prazosin displacement, rat submaxillary membranes, read-out: Affinity (Ki) α1A (Rat Submaxillary); for α1B/α1A: ratio of binding affinities, rat liver / rat submaxillary. As to the method: (§1) Receptor binding assays were performed using native a-adrenoceptors. The affinity of different compounds for α1A and α1B adrenoceptor subtypes was evaluated by studying their ability to displace specific [^3H] prazosin binding from the membranes of rat submaxillary and liver respectively (Michel et al., Br J Pharmacol, 1989: 98:883). The binding assays were performed according to U+Prichard et al. (Eur J Pharmacol, 1978; 50:87 with minor modifications.
(§2) Submaxillary glands were isolated immediately after sacrifice. The liver was perfused with buffer (Tris HCl 50 mM, NaCl 100 mM, 10 mM EDTA pH 7.4). The tissues were homogenised in 10 volumes of buffer (Tris HCl 50 mM, NaCl 100 mM, 10 mM EDTA pH 7.4). The homogenate was filtered through two layers of wet gauge and filtrate was centrifuged at 500 g for 10 min. The supernatant was subsequently centrifuged at 40,000 g for 45 min. The pellet thus obtained was resuspended in the same volume of assay buffer (Tris HCl 50 mM, 5 mM EDTA pH 7.4) and was stored at −70° C. until the time of assay.
(§3) The membrane homogenates (150-250 μg protein) were incubated in 250 μl of assay buffer (Tris HCl 50 mM, EDTA 5 mM, pH 7.4) at 24-25° C. for 1 hour. Non specific binding was determined in the presence of 300 nM prazosin. The incubation was terminated by vacuum filtration over GF/B fibre filters. The filters were then washed with ice cold 50 mM Tris HCl buffer (pH 7.4). The filtermats were dried and bound radioactivity retained on filters was counted. The IC50 and Kd were estimated by using the non-linear curve-fitting program using G Pad Prism software. The value of inhibition constant Ki was calculated from competitive binding studies by using Cheng & Prusoff equation (Cheng & Prusoff, Biochem Pharmacol, 1973, 22: 3099-3108), Ki=IC50/(1+L/Kd) where L is the concentration of [^3H] prazosin used in the particular experiment (Table 1).

In a further test the target is T2, α1B adrenoceptor (Rattus norvegicus, UniProt P15823).
T2 construct: from tissue; host or cells: rat liver membranes
T2 sequence (P15823 1-515): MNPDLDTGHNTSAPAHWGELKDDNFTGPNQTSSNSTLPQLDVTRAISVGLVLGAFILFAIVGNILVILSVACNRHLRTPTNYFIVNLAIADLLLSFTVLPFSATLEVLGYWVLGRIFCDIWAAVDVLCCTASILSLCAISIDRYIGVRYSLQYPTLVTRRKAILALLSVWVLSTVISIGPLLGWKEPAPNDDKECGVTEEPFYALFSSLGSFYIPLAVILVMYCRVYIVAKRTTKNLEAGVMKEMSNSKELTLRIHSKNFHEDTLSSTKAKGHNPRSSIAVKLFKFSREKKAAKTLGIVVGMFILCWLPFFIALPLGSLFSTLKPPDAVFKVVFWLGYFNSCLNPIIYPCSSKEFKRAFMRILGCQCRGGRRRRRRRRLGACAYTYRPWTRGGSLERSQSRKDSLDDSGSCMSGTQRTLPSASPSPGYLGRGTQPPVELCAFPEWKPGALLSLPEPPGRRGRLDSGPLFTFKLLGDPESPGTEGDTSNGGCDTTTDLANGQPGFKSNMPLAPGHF
Nature of the test: Radioligand binding, [3H] prazosin displacement, rat liver membranes. The following applies: read-out: Affinity (Ki) α1B (Rat Liver). As to the method: as §1, §2, §3

`COc1ccccc1[N+]1([O-])CCN(CCCN2C(=O)CCCC2=O)CC1` [Compound No. 55, 1-[4-(2-Methoxyphenyl)piperazin-1-yl-4-N-oxide]-3-(2,6-dioxopiperidin-1-yl]propane]: on α1A adrenoceptor, the Ki is 72 nM and the α1B/α1A was 51. Moreover, the Ki on α1B adrenoceptor was 3640 nM.

Consider `CC(C)Oc1c(O)cccc1N1CCN(CCCN2C(=O)C3CC=CCC3C2=O)CC1` (centres unmarked) [Compound No. 35, 2-[3-{4-(2-Isopropoxy-3-hydroxyphenyl)piperazin-1-yllpropyl]-3a,4,7,7a-tetrahydro-1H-isoindole-1,3(2H)-dione hydrochloride], for which, on α1A adrenoceptor, the Ki amounted to 38 nM and the α1B/α1A is listed as 15. For the same compound, the Ki at α1B adrenoceptor is 582 nM.

As to `CC(C)Oc1ccccc1N1CCN(CCC(=O)N2C(=O)C3CCCCC3C2=O)CC1.Cl` (centres unmarked) [Compound No. 63, 2-[3-{4-(2-Isopropoxyphenyl)piperazin-1-yl}-1-oxo-propyl]-3a,4,5,6,7,7a-hexahydro-1H-isoindole-1,3(2H)-dione hydrochloride], on α1A adrenoceptor, the Ki was more than 100 nM and the α1B/α1A is more than 10. For the same compound, on α1B adrenoceptor, the Ki is more than 1000 nM.

Take `CCOc1ccccc1N1CCN(CCCN2C(=O)C3CC(O)C(Cl)CC3C2=O)CC1.Cl` (centres unmarked) [Compound No. 17, hydrochloride]: the Ki on α1A adrenoceptor was 1.6 nM; at α1B adrenoceptor it was 80 nM.

On to `Cl.O=C1CCCC(=O)N1CC(O)CN1CCN(c2ccccc2O)CC1` (centres unmarked) [Compound No. 44, 1-[4-(2-hydroxyphenyl)piperazin-1-yl]-2-hydroxy-3-(2,6-dioxopiperidin-1-yl]propane hydrochloride], for which, at α1A adrenoceptor, the Ki turned out to be 594 nM and the α1B/α1A was 3. The Ki at α1B adrenoceptor is 1740 nM.

For `CCOc1ccc(O)cc1N1CCN(CCCN2C(=O)C3CC=CCC3C2=O)CC1` (centres unmarked) [Compound No. 24, 2-[3-{4-(2-Ethoxy-5-hydroxyphenyl)piperazin-1-yl}propyl]-3a,4,7,7a-tetrahydro-1H-isoindole-1,3-(2H)-dione hydrochloride], the Ki at α1A adrenoceptor was 5.9 nM; on α1B adrenoceptor, 495 nM. For the same compound, on α1A adrenoceptor, the α1B/α1A was 84.

For the compound `CC(C)Oc1ccccc1N1CC[N+]([O-])(CC(O)CN2C(=O)C3CC=CCC3C2=O)CC1` (centres unmarked) [Compound No. 65, 2-[3-{4-(2-Isopropoxyphenyl)piperazin-1-yl,1-N-oxide}2-hydroxypropyl]-3a,4,7,7a-tetrahydro-1H-isoindole-1,3(2H)-dione], the Ki on α1A adrenoceptor and on α1B adrenoceptor was more than 1000 nM each time. For the same compound, on α1A adrenoceptor, the α1B/α1A is recorded as 1.

Regarding `CC(C)Oc1ccccc1NCCN(C=O)CCCN1C(=O)C2CC=CCC2C1=O` (centres unmarked) [Compound No. 53, 2-[N-{N′-(2-Isopropoxyphenyl)aminoethyl}formylaminopropyl]-3a,4,7,7a-tetrahydro-1H-isoindole-1,3(2H)-dione], the values for the Ki on α1A adrenoceptor and on α1B adrenoceptor were 74 nM and more than 15000 nM, respectively. Moreover, on α1A adrenoceptor, the α1B/α1A is on record as more than 203.

With `COC1CC2C(=O)N(CCCN3CCN(c4ccccc4OC(C)C)CC3)C(=O)C2CC1OC.Cl` (centres unmarked) [Compound No. 76, 2-[3-{4-(2-Isopropoxyphenyl)piperazin-1-yl}propyl]-5,6-dimethoxy-3a,4,5,6,7,7a-hexahydro-1H-isoindole-1,3(2H)-dione hydrochloride], at α1A adrenoceptor, the Ki is 1.4 nM and the α1B/α1A is 137. The Ki on α1B adrenoceptor came to 192 nM.

On to `COc1ccccc1N1CC[N+]([O-])(CC(O)CN2C(=O)CCCC2=O)CC1` (centres unmarked) [Compound No. 69, 1-[4-(2-Methoxyphenyl)piperazin-1-yl-1-N-oxide]-3-(2,6-dioxopiperidin-1-yl]-2-hydroxypropane], for which the Ki on α1A adrenoceptor was 7160 nM; on α1B adrenoceptor, more than 10000 nM. The α1B/α1A on α1A adrenoceptor is reported as more than 10.

On to `Cl.O=C1CCCC(=O)N1CC(O)CN1CCN(c2ccccc2OCC(F)(F)F)CC1` (centres unmarked) [Compound No. 39, 1-[4-{2-(2,2,2-Trifluoroethoxy)phenyl)piperazin-1-yl]-2-hydroxy-3-(2,6-dioxopiperidin-1-yl)propane hydrochloride], for which the results for the Ki on α1A adrenoceptor and at α1B adrenoceptor were 6.9 nM and 1380 nM, respectively. The α1B/α1A on α1A adrenoceptor is given as 200.

What is called Ki is a measure of affinity in units of concentration, obtained from inhibition or displacement.
